Earlier results, collected in article PMC8198792, “Prediction of Anticancer Peptides with High Efficacy and Low Toxicity by Hybrid Model Based on 3D Structure of Peptides” (International Journal of Molecular Sciences, 2021).
Read-outs that look alike come from different tables or passages of the source.

Tests used:
[1] = system: cancer cell lines; set-up: method as in 6 sources, ref CancerPPD [45] and SATPdb ||| ref CancerPPD/SATPdb ||| ref CancerPPD, SATPdb, Swissprot (PDB) ||| ref CancerPPD/SATPdb/Swissprot(PDB) ||| ref CancerPPD / SATPdb ||| ...; details: cited from earlier work
From the text: Supplement ijms-22-05630-s001.zip/ACPs(seguence).xlsx, sheet "D1" | column: Activity || Supplement ijms-22-05630-s001.zip/ACPs(seguence).xlsx, sheet "D2" | column: Activity || Supplement ijms-22-05630-s001.zip/ACPs(seguence).xlsx, sheet "D3" | column: Activity || (+ 2 further places)

[2] = system: erythrocytes; details: cited from earlier work
From the text: Supplement ijms-22-05630-s001.zip/Hemloytic Peptides(seguence).xlsx, sheet "HD1" | column: Activity || Supplement ijms-22-05630-s001.zip/Hemloytic Peptides(seguence).xlsx, sheet "HD2" | column: Activity || Supplement ijms-22-05630-s001.zip/Hemloytic Peptides(seguence).xlsx, sheet "HD3" | column: Activity

[3] = ACPs dataset D1, label 1 = ACP, 0 = non-ACP (non-anticancer AMPs from SATPdb), ref CancerPPD/SATPdb
[4] = ACPs dataset D4 (sheet "D4"), label 1 = ACP (CancerPPD ID), 0 = non-ACP (non-anticancer AMP, SATPdb ID), ref CancerPPD [45] and SATPdb
[5] = hemolytic peptides dataset HD3, 1 = hemolytic (positive set), 0 = non-hemolytic (negative set), labels taken from databases, ref Hemolytik/SATPdb
[6] = natural hemolytic peptide dataset HD1, label collected from databases, ref Hemolytik [49], SATPdb [34]
[7] = ACPs dataset D3 (supplement sheet "D3"), 1 = ACP, 0 = non-ACP, ref CancerPPD [45] and SATPdb
[8] = ACPs dataset D4 (sheet "D4"), label 1 = ACP, 0 = non-ACP, ref CancerPPD / SATPdb
[9] = ACPs dataset D5, sheet "D5", label 1 = ACP, 0 = non-ACP, ref CancerPPD [45] and SATPdb
[10] = Hemolytic peptides dataset HD2, label 1 = hemolytic, 0 = non-hemolytic, ref Hemolytik/SATPdb
[11] = ACPs dataset D3 (sheet "D3"), label 1 = ACP, 0 = non-ACP, ref CancerPPD/SATPdb
[12] = ACPs dataset D1, 1 = ACP (positive), 0 = non-ACP (negative), label taken from databases, ref CancerPPD [45] and SATPdb

Substance	Activity [2, 5]	Activity [1, 8]	Activity [1, 9]	Activity [2, 10]	Activity [1, 11]	Activity [2]	further results
MQFITDLIKKAVDFFKGLFGNK [satpdb11952]	1						Activity [1, 3]: 0; Activity [1, 4]: 0; Activity (dataset HD1, hemolytic 1 / non-hemolytic 0) [2, 6]: 1
DAACAAKCLWR [satpdb10773]	0	0	0	0			Activity [1, 7]: 0
FLSTIWNGIKSLL [satpdb12436]	1	0	0	1	0		
QPTRRPRPGTGPGRRPRPRPRP [satpdb11920]						0	Activity [1, 3]: 0; Activity [1, 4]: 0; Activity (dataset HD1, hemolytic 1 / non-hemolytic 0) [2]: 0
FVPWFSKFLGRIL [satpdb13384]	1	0	0	1	0		
KWAKKWKWFAKAAWKWYKK [satpdb12565]	1	0	0	1	0		
LNWGALLKHLLK [satpdb12233]		0	0		0	1	
KKKKKKAAAAFWAAAAF [satpdb11398]		0	0			0	Activity [1, 7]: 0
KKLFKKiLKYL [satpdb14620]		0	0		0	0	
KLalKLALKALKAALKLA [satpdb12751]		0	0		0	1	
ILAWKWAWWAWRR [satpdb11388]		0	0			1	Activity [1, 7]: 0
GFLSILKKVLGKVMAHMK [satpdb11125]	1	0	0	1			Activity [1, 7]: 0
LKWLLKWLL [satpdb12315]	1	0	0	1	0		
ALPLIGRVLSGIL [satpdb11361]		0	0			1	Activity [1, 7]: 0
GLGSLLGKAFKIGLKTVGKMMGGAPREQ [satpdb12448]						1	Activity [1, 3]: 0; Activity [1, 4]: 0; Activity (dataset HD1, hemolytic 1 / non-hemolytic 0) [2]: 1
RFGRFLRKIRRFRPKVTITIQGSARFG [satpdb11815]						1	Activity [1, 3]: 0; Activity [1, 4]: 0; Activity (dataset HD1, hemolytic 1 / non-hemolytic 0) [2]: 1
FQWQRNIRKVR [satpdb14534]		0	0		0	0	
WLKKLLKKLLK [satpdb12765]		0	0		0	1	
LLLFLLKKRKKRKY [satpdb12213]						1	Activity [1, 3]: 0; Activity [1, 4]: 0; Activity (dataset HD1, hemolytic 1 / non-hemolytic 0) [2]: 1
ILPFKFPFPFRR [satpdb12286]		0	0		0	1	
VKLGVyPLKVKLyP [satpdb12769]		0	0		0	1	
GLVTSLIKGAGKLLGGLFGSVTGGQS [satpdb13110]		0				1	Activity [1, 3]: 0; Activity (dataset HD1, hemolytic 1 / non-hemolytic 0) [2]: 1
FLPILGKLLSGIL [satpdb10106]	1	0	0	1			Activity [1, 7]: 0

Substance	Activity [2, 5]	Activity [1, 8]	Activity [1, 9]	Activity [2, 10]	Activity [1, 11]	Activity [2]	further results
FLSLALAALPKLFCLIFKKC [satpdb10291]	1						Activity [1, 12]: 0; Activity [1, 4]: 0; Activity (dataset HD1, hemolytic 1 / non-hemolytic 0) [2, 6]: 1
kklfkkILKYL [satpdb10342]	0	0	0	0			Activity [1, 7]: 0
FIGAIARLLSKIF [satpdb13222]	1	0					Activity [1, 3]: 0; Activity (dataset HD1, hemolytic 1 / non-hemolytic 0) [2, 6]: 1
KWFKKIPKFLHLAKKF [compound 1150]	1			1			Activity [1, 7]: 1; Activity [1, 4]: 1; Activity ([1]; ACPs dataset D5 (sheet "D5"), label 1 = ACP (positive set), 0 = non-ACP (negative set), ref CancerPPD [45] and SATPdb): 1
GWLDVAKKIGKAAFNVAKNFLFNKAVNFAAKGIKKAVDLWG [satpdb12864]	1	0					Activity [1, 3]: 0; Activity (dataset HD1, hemolytic 1 / non-hemolytic 0) [2, 6]: 1
ILPWKWPKLPWRR [satpdb13392]		0	0		0	0	
VKLkVyPLKVKLyP [satpdb13685]		0	0		0	1	
VNSKKISPKSIKVSK [satpdb10612]	1	0	0	1			Activity [1, 7]: 0
FRPKVTITIQGSARF [satpdb11995]		0	0		0	0	
LLIILRRRWRKQAKAKSK [satpdb12920]		0	0		0	1	
KWKKLLKKPLKLLKKLLK [satpdb12290]		0	0		0	1	
KWKSFLKTFKSAKKKVLHKALKAISS [satpdb10714]	1	0	0	1			Activity [1, 7]: 0
FPFSLIPHAIGGLISAIK [satpdb11349]	1						Activity [1, 12]: 0; Activity [1, 4]: 0; Activity (dataset HD1, hemolytic 1 / non-hemolytic 0) [2, 6]: 1
RLKELITTGGQKIGEKIRRIGQRIKDFFKNLQPREEKS [satpdb11766]						1	Activity [1, 3]: 0; Activity [1, 4]: 0; Activity (dataset HD1, hemolytic 1 / non-hemolytic 0) [2]: 1
FLPLIGRVLSGAL [satpdb13300]		0	0		0	1	
VSWKKSLGKIIKVVK [satpdb13183]	1	0	0	1	0		
yPVKLyPVKL [satpdb11316]	1	0	0	1			Activity [1, 7]: 0
VCGETCFGGTCNTPGCSCTWPICTRDGLP [satpdb10452]	1						Activity [1, 3]: 0; Activity [1, 4]: 0; Activity (dataset HD1, hemolytic 1 / non-hemolytic 0) [2, 6]: 1
LKKLLKWLKKL [satpdb13099]		0	0		0	1	
GIGAvLKvLTTGLPALiSWIkRKRQQ [satpdb13084]	0	0	0	0	0		
GFLSSLKKSLPKSXAHSK [satpdb13158]	1	0	0	1	0		
TSRCIFYRRKKCS [satpdb13333]		0				1	Activity [1, 3]: 0; Activity (dataset HD1, hemolytic 1 / non-hemolytic 0) [2]: 1
